Source: PubChem BioAssay AID720666 (NMMLSC, 2013)
Calls of active or inactive are those of the source.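 Rule for the calls: active = over 50% inhibition of PKC substrate or ERK kinase phosphorylation; inactive = the rest.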

System: TALL-104 cells, PKC substrate phosphorylation, flow cytometry
Assay: inhibitors of PKC substrate phosphorylation, late-stage follow-up, mechanism study for lytic granule exocytosis inhibitor project, TALL-104 cells, flow cytometry, CherryPick01 (AID 720666)
Details: at 30 µM; stronger effect = higher value

SMILES | inhibition
O=CNc1cc(-c2ccsc2)cn2c(-c3ccccc3)cnc12 | -35.4% (inactive)
CCCCC[C@@H](C)N1C[C@@H](COCc2ccccc2)Oc2cc(N3CC[C@@H](N(C)C)C3)ccc2S1(=O)=O | -3.7% (inactive)
CC1=C(C)CS(=O)N(S(=O)(=O)c2ccc(Cl)cc2)C1 (configuration not stated) | -41.1% (inactive)
CC1=NOC(=O)/C1=C/c1ccc(-c2ccc(Cl)cc2)o1 | -44% (inactive)
CCCCC[C@@H](C)N1C[C@H](COCc2ccccc2)Oc2cc(N3CC[C@@H](N(C)C)C3)ccc2S1(=O)=O | -58.8% (inactive)
O=c1c2ccc(F)cc2sn1-c1ccccc1 | -40.1% (inactive)
CC(C)(c1ccccc1)c1ccc(OCC(O)CNC2CCN(Cc3ccccc3)CC2)cc1 (configuration not stated) | -98.8% (inactive)
N#Cc1c(Nc2ccccc2Cl)s[nH]c1=O | -74.8% (inactive)
O=C(Cn1sc2ccccc2c1=O)NC12CC3CC(CC(C3)C1)C2 | -7.9% (inactive)
CCCCC[C@@H](C)N1C[C@@H](COCc2ccccc2)Oc2cc(N3CC[C@H](N(C)C)C3)ccc2S1(=O)=O | -45.9% (inactive)
O=C(Cn1sc2ccccc2c1=O)Nc1ccc(F)cc1 | -10.3% (inactive)
O=C(CN1C(=O)/C(=C\c2cccc(Br)c2)Oc2ccccc21)NCCCN1CCOCC1 | 6.3% (inactive)
CCOC(=O)c1c(NC(=O)COc2ccccc2OCC)sc2c1CC(C)(C)NC2(C)C | -9.9% (inactive)
COc1ccccc1CNc1nc(NCc2ccc(C(C)C)cc2)c2sccc2n1 | -50.7% (inactive)
CCN(CC)CCCNc1ccc(-c2nnc(-c3ccc(OCC(C)C)cc3)o2)cn1 | -94.2% (inactive)
Cc1ccc(Nc2nc(NCc3ccco3)c3ccccc3n2)cc1 | -25.2% (inactive)
COc1ccc(-c2cc(NC=O)c3ncc(-c4cccc(OC)c4)n3c2)cc1 | -43.6% (inactive)
COc1ccc(-n2sc3ccccc3c2=O)cc1 | 0% (inactive)
Cc1cc(N2CCN(c3nc(-c4ccc([N+](=O)[O-])cc4)cs3)CC2)c2ccccc2n1 | -81.1% (inactive)
O=C1CC(Sc2nnnn2-c2ccccc2)C(=O)N1c1cccc(Cl)c1 (configuration not stated) | -30.8% (inactive)
CC1COCC(C)N1C1=C(Cl)C(=O)c2ccccc2C1=O (configuration not stated) | -212% (inactive)
COc1ccc(-c2cc(NC=O)c3ncc(-c4ccccc4)n3c2)cc1OC | -38.6% (inactive)
COC(=O)c1c(NC(=O)c2nc3ccccc3s2)sc2c1CC(C)(C)NC2(C)C | -30.7% (inactive)
CN(C)CCNC(=O)c1ccc(-c2cn3c(-c4ccc(Oc5ccccc5)cc4)cnc3cn2)cc1 | 5.3% (inactive)
Cc1ccc(S(=O)(=O)n2ccc3c(OCCOCCNCc4ccc(F)cc4)cccc32)cc1 | -25.9% (inactive)
O=c1c2ccccc2sn1-c1ccccc1 | -24.9% (inactive)
COc1ccc(N2C(=O)CC(Sc3nnc(-c4ccccc4)o3)C2=O)cc1 (configuration not stated) | 1.3% (inactive)
